One block for each compound: values may come before it.
Assays:
[1] = Simulated Hand Stirring Test (calcium sedimentation after stirring a unit dose in water); assay type: physicochemical; settings: for Sweetener/calcium ratio to pass 60-second Simulated Hand Stirring Test: calcium hydroxide providing 300 mg calcium per unit dose, citric acid 0.96 gram per unit dose, 200 ml water at 25° C., 200 rpm; for calcium base reacts fast enough with the acid for minimal calcium sedimentation: with appropriate amount of sugar, stirred for less than about 60 seconds by hand; for Acid required/Dose: citric acid to pass 60-second test
Description: A magnetic stir bar (9.5×50.8 mm, catalogue no. 58948-980, VWR Spinbar®, USA) is placed in a 250-ml Pyrex® beaker (catalogue no. 1000-250, Corning, USA) to which 200 ml of water at 25° C. is added. The beaker is placed on top of a digital magnetic stirrer (Cole Parmer, USA) and the speed set at 200 rpm. A unit dose of a powdered mix is then added to the water and stirred for a given period of time, after which the beaker is removed and calcium sedimentation evaluated on a 1-10 scale, with 1 denoting no visible calcium sedimentation. A rating of 2 denoting very minimal calcium sedimentation, which is visually acceptable, is set as the minimum dissolution criterion.
Hereafter, this test will be referred to as the “Simulated Hand Stirring Test”. When the stirring time is 60 seconds, the test is referred to as the “60-second Simulated Hand Stirring Test”.

[2] = Solubility in water; assay type: physicochemical
[3] = cited from earlier work

Compound: [O]=[Ca] [Calcium oxide, reference compound]
calcium base reacts fast enough with the acid for minimal calcium sedimentation [1]: may not react fast enough

Compound: O=C(CO)[C@@H](O)[C@H](O)[C@H](O)CO [Fructose]
Sweetener/calcium ratio to pass 60-second Simulated Hand Stirring Test [1]: 45 | Acid required/Dose ([1]; fructose On Mesh 20 (> 841 micron), 22 g fructose/dose, 500 mg calcium/dose): 2.0 | Acid required/Dose ([1]; fructose On Mesh 20, 6 g fructose/dose, 150 mg calcium/dose): 0.5 | Acid required/Dose ([1]; fructose On Mesh 20, 16 g fructose/dose, 300 mg calcium/dose): 1.0 | Acid required/Dose ([1]; fructose Through mesh 40 (< 420 micron), 22 g fructose/dose, 500 mg calcium/dose): 2.0 | Acid required/Dose ([1]; fructose Through mesh 40, 6 g fructose/dose, 150 mg calcium/dose): 0.5 | Acid required/Dose ([1]; fructose Through mesh 40, 16 g fructose/dose, 300 mg calcium/dose): 1.0

Compound: [Ca+2].[OH-].[OH-] [Calcium hydroxide]
calcium base reacts fast enough with the acid for minimal calcium sedimentation [1]: will react fast enough

The next lines start with results.

Sweetener/calcium ratio to pass 60-second Simulated Hand Stirring Test [1]: 60
Compound: OC[C@H]1O[C@@](CO)(O[C@H]2O[C@H](CO)[C@@H](O)[C@H](O)[C@H]2O)[C@@H](O)[C@@H]1O [Sucrose]

Sweetener/calcium ratio to pass 60-second Simulated Hand Stirring Test [1]: 95
Compound: OC[C@@H](O)[C@@H](O)[C@H](O)[C@@H](O)CO [Sorbitol, reference compound]

calcium sedimentation with fumaric acid as the acid ([1]; 555 mg calcium hydroxide (300 mg calcium), 26 grams sucrose, fumaric acid at three times the stoichiometric amount): significant calcium sedimentation | times more soluble than calcium hydroxide [2]: about four
Compound: O=C(O)/C=C/C(=O)O [Fumaric acid, reference compound]
solubility in water [3]: 0.63 gram per 100 ml of water

times more soluble than calcium hydroxide [2]: about 300 times
Compound: O=C(O)CC(O)C(=O)O (stereo not drawn) [malic acid]
